From patent US20150329864A1, “DESIGN OF OLIGONUCLEOTIDE ANALOGS AS THERAPEUTIC AGENTS” (SPRING BANK PHARMACEUTICALS, INC., priority 2010, published 2015)
Read-outs that look alike come from different tables or passages of the source.

Assays:
[1] = test system: IRF3-luciferase reporter gene (activation of NOD2); experiment: IRF3-luciferase reporter induction in HLE A549 cells endogenously expressing NOD2; format: cell-based, human; conditions: for Fold induction of IRF3 luciferase activity: 1 µM; for fold induction at 1 µM: Homo sapiens, A549, 12 h
Method: In the primary assays, di- and trinucleotide compounds were tested for the induction of IRF3 expression in HLE A549 cells, which are known to express NOD2.
HLE cells normally endogenously express NOD2. To determine if short oligonucleotide compounds activate NOD2, HLE cells transfected with IRF3 plasmid were employed. IRF3-luciferase transfected cells were incubated with either DMSO only (UT) or test compounds (1 μM). Following 12 h incubation, Luciferase activity was measured using Dual-Luciferase Reporter Assay System (Promega) according to the manufacturer's protocol. Transection efficiency was normalized by measuring the expression of renilla Luciferase. Luciferase units (i.e., fold induction) were measured by standard methodology.

[2] = test system: Human Respiratory Syncytial Virus (RSV); experiment: RSV infectivity, plaque assay; format: cell-based; conditions: human lung epithelial cells, RSV 0.5 MOI, 24 h post-infection
Method: (A) RSV infectivity in untreated (UT) and SMNH-treated cells. Human lung epithelial cells were infected with RSV (0.5 MOI) in the absence (DMSO only) or presence of various SMNH compounds (1 μM). At 24 h post-infection, the medium supernatant was collected and the viral titer in the supernatant was assayed by plaque assay analysis using CV-1 cell monolayer, 100% RSV infection represents viral titer from cells incubated with DMSO only (UT cells). The values represent mean±S.D. for three independent determinations. S.D. is shown as error bars.
(B) A typical plaque assay showing RSV infectivty in UT and SMNH-treated cells. Culture supernatant from RSV infected cells (+/− SMNH) was added to CV-1 cells at a dilution of […]. Plaques were observed and quantitated on methylcellulose after crystal violet staining.

[3] = test system: HBV wild type and drug resistant strains; experiment: HepG2.2.15 HBV assay; format: cell-based; conditions: Hepatitis B virus, HepG2.2.15, read-out: EC50, inhibition of intracellular HBV replication
Method: Selected compounds were evaluated in in vitro cell-based HepG2.2.15 HBV assay.
Antiviral analysis. For the antiviral analyses, confluent cultures of 2.2.1.5 cells were maintained on 96-well flat-bottomed tissue culture plates in RPMI1640 medium with 2% fetal bovine serum. Cultures (6 per each test concentration on two replicate plates) were treated with 9 consecutive daily doses of the test compounds. Medium was changed daily with fresh test compounds. HBV nucleic acid and protein levels were measured 24 hours after the last treatment. Extracellular (virion) HBV DNA levels were assessed by quantitative blot hybridization. Intracellular HBV DNA levels were measured by quantitative Southern blot hybridization.

[4] = test system: HCV replicon AVA5 (sub-genomic (CON1), genotype 1b); experiment: Primary anti-HCV assay, replicon cell line AVA5; format: cell-based; conditions: 3-day assay
Method: (§1) Antiviral activity against HCV was assessed in a 3-day assay (Okuse, et al., 2005; Antiviral. Res. 65:23; Korba, et al., 2008, Antiviral Res. 77:56) using the stably-expressing HCV replicon cell line, AVA5 (sub-genomic (CON1), genotype 1b) (Blight, et al., 2000; Science 290:1972) maintained as sub-confluent cultures on 96-well plates. Antiviral activity was determined by blot hybridization analysis of intracellular HCV RNA (normalized to the level of cellular B-actin RNA in each culture sample). Cytotoxicity was assessed by neutral red dye uptake in cultures maintained in parallel plates.
EC50, EC90, and CC50 values were calculated by linear regression analysis (MS EXCEL®, QuattroPro®) using data combined from all treated cultures Korba & Gerin, 1992, Antivir. Res. 19:55; Okuse, et al., 2005, Antivir. Res. 65:23). Standard deviations for EC50 and EC90 values are calculated from the standard errors generated by the regression analyses, EC50 and EC90 are drug concentrations at which a 2-fold, or a 10-fold depression of intracellular HCV RNA (relative to the average levels in untreated cultures), respectively was observed. […] Recombinant human interferon 2b (PBL laboratories, Inc.) is used as an assay control.

[5] = Cytotoxicity by neutral red dye uptake in HCV replicon cultures; format: cell-based; conditions: human, AVA5 HCV replicon cell line (sub-genomic CON1, genotype 1b); parallel plates, 3-day assay; read-out: CC50, neutral red dye uptake
Method: as §1
EC50, EC90, and CC50 values were calculated by linear regression analysis (MS EXCEL®, QuattroPro®) using data combined from all treated cultures Korba & Gerin, 1992, Antivir. Res. 19:55; Okuse, et al., 2005, Antivir. Res. 65:23). […]
Combination treatments are conducted as previously described. Briefly, two agents were mixed together at a pre-determined concentration ratio. […] Analysis of drug interactions in the combination studies was determined by the use of the CALCUSYN program (Biosoft, Inc., Cambridge, United Kingdom). […]

[6] = In vitro cytotoxicity, MTT assay; format: cell-based; conditions: cattle (MDBK), African green monkey (Vero), human (HFF)
Method: Compounds 5 and 6k have excellent safety profile with CC50>1000 micromolar in a number of cell lines. Standard MTT assays were performed in 96-well plates using the Promega CellTiter96 Non-radioactive Cell Proliferation Assay Kit in conjunction with a 96-well Plate Reader (ThermoMax, Molecular devices), and MDBK, Vero, and HFF cell lines (obtained from ATCC). Several controls were employed including the nucleoside analogs 3TC, AZT, and ddC, as well as, media without drugs. SDS was used as a positive cytotoxic control. The compounds were tested in triplicate at concentrations of 100, 300, and 1000 μM. Following a 24-hour incubation of cells with the test substance, the MTT assay was carried out.

NOD2 = experiment: IRF3 induction in HEK cells with or without transfected NOD2; format: cell-based
[7] = 1 μM, 12 h, HLE A549 cells, SMNH treated vs. untreated cells

SMILES	Fold induction of IRF3 luciferase activity [1, 7] [fold]	fold induction at 1 µM ([1]; read-out: Fold induction of IRF3 luciferase activity, 1 μM, 12 h, HLE A549 cells, SMNH treated vs. untreated cells)	inhibition at 1 µM ([2]; human respiratory syncytial virus, Epithelial cell, 24 h) [%]	EC50 [3] [µM]	EC90, 10-fold depression of intracellular HCV RNA [4]	CC50 at 3 day [5] [µM]	CC50 at 24 h ([6]; MTT, 24-hour incubation, tested at 100, 300, and 1000 μM, read-out: CC50) [µM]	fold induction at 1 µM ([1]; 1 μM, 12 h, HLE A549 cells, SMNH treated vs. untreated cells, read-out: Fold induction of IRF3 luciferase activity)	induction of IRF3 (NOD2; HEK cells transfected with NOD2)	induction of IRF3 (NOD2; NOD2 deficient HEK cells)	% inhibition of RSV at 1 μM ([2]; 1 µM) [%]	EC50 ([4]; Hepatitis C virus, Ava5, 72 h) [µM]	CC50 at 24 h [6] [µM]
CO[C@H]1C(OP(=O)(OC[C@H]2O[C@@H](n3cnc4c(N)ncnc43)CC2O)SCOC(=O)OC(C)C)[C@@H](CO)O[C@H]1n1ccc(=O)[nH]c1=O (stereo partly drawn) [Compound 6k]	22	15 to 20	60 to 80	0.3 to 2	about 8 micromolar	> 100	> 1000						
CO[C@H]1C(OP(=O)(S)OC[C@H]2O[C@@H](n3cnc4c(N)ncnc43)CC2O)[C@@H](CO)O[C@H]1n1ccc(=O)[nH]c1=O (stereo partly drawn) [Compound 5, 3-dApsU2′-OMe]	25			0.3 to 2				15 to 20	cause induction of IRF3	failed to induce IRF3	82	~3	> 1000
